# Data taken from ChEMBL document CHEMBL5584237, “Design, synthesis, biological evaluation, and in silico studies of novel pyridopyridine derivatives as anticancer candidates targeting FMS kinase” (Eur J Med Chem, 2024).
# Active and inactive are the calls of the source. No cut-off for these calls is given here.
# What was measured:
# MOLT-4 = assay: Antiproliferative activity against human MOLT-4 cells assessed as cell growth inhibition; format: functional
# SR = assay: Antiproliferative activity against human SR cells assessed as cell growth inhibition; format: functional
# A549 = assay: Antiproliferative activity against human A549 cells assessed as cell growth inhibition; format: functional
# HCT-116 = assay: Antiproliferative activity against human HCT-116 cells assessed as cell growth inhibition; format: functional
# SF-295 = assay: Antiproliferative activity against human SF-295 cells assessed as cell growth inhibition; format: functional
# SF-539 = assay: Antiproliferative activity against human SF-539 cells assessed as cell growth inhibition; format: functional
# LOX IMVI = assay: Antiproliferative activity against human LOX IMVI cells assessed as cell growth inhibition; format: functional
# MDA-MB-435 = assay: Antiproliferative activity against human MDA-MB-435 cells assessed as cell growth inhibition; format: functional
# SK-MEL-28 = assay: Antiproliferative activity against human SK-MEL-28 cells assessed as cell growth inhibition; format: functional
# PC-3 = assay: Antiproliferative activity against human PC-3 cells assessed as cell growth inhibition; format: functional
# DU-145 = assay: Antiproliferative activity against human DU-145 cells assessed as cell growth inhibition; format: functional
# MCF7 = assay: Antiproliferative activity against human MCF7 cells assessed as cell growth inhibition; format: functional
# MDA-MB-468 = assay: Antiproliferative activity against human MDA-MB-468 cells assessed as cell growth inhibition; format: functional
# [1] = Selectivity index, ratio of IC50 for human WI-38 cells to IC50 for human CCRF-CEM cells; format: toxicity; settings: WI-38 cells and CCRF-CEM cells, read-out: Ratio IC50
# [2] = Selectivity index, ratio of IC50 for human WI-38 cells to IC50 for human K562 cells; format: toxicity; settings: WI-38 cells and K562 cells, read-out: Ratio IC50
# [3] = Selectivity index, ratio of IC50 for human WI-38 cells to IC50 for human MOLT-4 cells
# [4] = Selectivity index, ratio of IC50 for human WI-38 cells to IC50 for human HCT-116 cells; format: toxicity; settings: WI-38 cells and HCT-116 cells, read-out: Ratio IC50
# [5] = Selectivity index, ratio of IC50 for human WI-38 cells to IC50 for human HCT-15 cells
# [6] = Selectivity index, ratio of IC50 for human WI-38 cells to IC50 for human SF-295 cells
# [7] = Selectivity index, ratio of IC50 for human WI-38 cells to IC50 for human SK-MEL-28 cells
# [8] = Selectivity index, ratio of IC50 for human WI-38 cells to IC50 for human OVCAR-3 cells
# [9] = Selectivity index, ratio of IC50 for human WI-38 cells to IC50 for human OVCAR-4 cells
# [10] = Selectivity index, ratio of IC50 for human WI-38 cells to IC50 for human 786-0 cells
# [11] = Selectivity index, ratio of IC50 for human WI-38 cells to IC50 for human CAKI-1 cells
# [12] = Selectivity index, ratio of IC50 for human WI-38 cells to IC50 for human RXF 393 cells
# [13] = Selectivity index, ratio of IC50 for human WI-38 cells to IC50 for human SN12C cells
# [14] = Selectivity index, ratio of IC50 for human WI-38 cells to IC50 for human PC-3 cells; format: toxicity; settings: WI-38 cells and PC-3 cells, read-out: Ratio IC50
# [15] = Selectivity index, ratio of IC50 for human WI-38 cells to IC50 for human DU-145 cells
# [16] = Selectivity index, ratio of IC50 for human WI-38 cells to IC50 for human MDA-MB-468 cells; format: toxicity; settings: WI-38 cells and MDA-MB-468 cells, read-out: Ratio IC50
# [17] = Selectivity index, ratio of IC50 for human HS27 cells to IC50 for human CCRF-CEM cells
# [18] = Selectivity index, ratio of IC50 for human HS27 cells to IC50 for human K562 cells
# [19] = Selectivity index, ratio of IC50 for human HS27 cells to IC50 for human SR cells
# [20] = Selectivity index, ratio of IC50 for human HS27 cells to IC50 for human COLO 205 cells
# [21] = Selectivity index, ratio of IC50 for human HS27 cells to IC50 for human HCT-15 cells
# [22] = Selectivity index, ratio of IC50 for human HS27 cells to IC50 for human HT-29 cells
# [23] = Selectivity index, ratio of IC50 for human HS27 cells to IC50 for human SW-620 cells
# [24] = Selectivity index, ratio of IC50 for human HS27 cells to IC50 for human SF-295 cells
# [25] = Selectivity index, ratio of IC50 for human HS27 cells to IC50 for human SK-MEL-28 cells
# [26] = Selectivity index, ratio of IC50 for human HS27 cells to IC50 for human CAKI-1 cells
# [27] = Selectivity index, ratio of IC50 for human HS27 cells to IC50 for human SN12C cells
# [28] = Selectivity index, ratio of IC50 for human HS27 cells to IC50 for human DU-145 cells
# [29] = Selectivity index, ratio of IC50 for human HS27 cells to IC50 for human MCF7 cells
# [30] = Selectivity index, ratio of IC50 for human HS27 cells to IC50 for human Hs-578T cells
# Hep 3B2 [31] = assay: Induction of apoptosis in human Hep3B cells assessed as increase in cleaved PARP expression at 3.38 uM measured after 48 hrs by Western blot analysis relative to control; format: functional
# Hep 3B2 [32] = assay: Cell cycle arrest in human Hep3B cells assessed as upregulation of cyclin B1 expression at 3.38 uM measured after 48 hrs by Western blot analysis; format: functional, cell-based
# Hep 3B2 [33] = assay: Cell cycle arrest in human Hep3B cells assessed as downregulation of cyclin D1 expression at 3.38 uM measured after 48 hrs by Western blot analysis; format: functional, cell-based
# Hep 3B2 [34] = assay: Cell cycle arrest in human Hep3B cells assessed as upregulation of cyclin B1 expression at 0.5 x IC50 to IC50 measured after 48 hrs by Western blot analysis; format: functional, cell-based
# Hep 3B2 [35] = assay: Cell cycle arrest in human Hep3B cells assessed as downregulation of cyclin D1 expression at 0.5 x IC50 to IC50 measured after 48 hrs by Western blot analysis; format: functional, cell-based
# in vitro = settings: human, WI-38 cells and A549 cells
# Description: Selectivity index, ratio of IC50 for human WI-38 cells to IC50 for human A549 cells
compound,measurement,setting,value
CCN1CCN(c2ccc(NC(=O)Nc3ccc(-c4cc(C(=O)NC(C)C)c5ncccc5n4)cc3)cc2C(F)(F)F)CC1,TGI,MOLT-4,30600 nM
same,TGI,SR,12100 nM
same,TGI,A549,5770 nM
same,GI50,HCT-116,640 nM
same,TGI,HCT-116,1300 nM
same,GI50,SF-295,580 nM
same,TGI,SF-295,1140 nM
same,GI50,SF-539,530 nM
same,TGI,SF-539,1020 nM
same,GI50,LOX IMVI,560 nM
same,TGI,LOX IMVI,1050 nM
same,GI50,MDA-MB-435,650 nM
same,TGI,MDA-MB-435,1310 nM
same,GI50,SK-MEL-28,750 nM
same,TGI,SK-MEL-28,1850 nM
same,GI50,PC-3,760 nM
same,TGI,PC-3,2100 nM
same,GI50,DU-145,750 nM
same,TGI,DU-145,1580 nM
same,GI50,MCF7,630 nM
same,TGI,MCF7,1500 nM
same,GI50,MDA-MB-468,770 nM
same,TGI,MDA-MB-468,1850 nM
same,selectivity ratio,[1],15.4
same,selectivity ratio,[2],15.4
same,Ratio IC50,[3],15.43
same,selectivity ratio,[4],18.8
same,Ratio IC50,[5],18.84
same,Ratio IC50,[6],8.71
same,Ratio IC50,[7],8.62
same,Ratio IC50,[8],5.89
same,Ratio IC50,[9],5.89
same,Ratio IC50,[10],10.52
same,Ratio IC50,[11],10.52
same,Ratio IC50,[12],10.52
same,Ratio IC50,[13],10.52
same,selectivity ratio,[14],21.6
same,Ratio IC50,[15],21.6
same,selectivity ratio,[16],10.1
same,Ratio IC50,[17],8
same,Ratio IC50,[18],8
same,Ratio IC50,[19],8
same,Ratio IC50,[20],9.77
same,Ratio IC50,[21],9.77
same,Ratio IC50,[22],9.77
same,Ratio IC50,[23],9.77
same,Ratio IC50,[24],4.52
same,Ratio IC50,[25],4.47
same,Ratio IC50,[26],5.45
same,Ratio IC50,[27],5.45
same,Ratio IC50,[28],11.2
same,Ratio IC50,[29],5.22
same,Ratio IC50,[30],5.22
same,fold change (FC),Hep 3B2 [31],27
same,Activity,Hep 3B2 [32],Active
same,Activity,Hep 3B2 [33],Active
same,Activity,Hep 3B2 [34],inactive
same,Activity,Hep 3B2 [35],inactive
same,selectivity ratio,in vitro,6.4
